Measurements from publication PMC10095824, “Design and Synthesis of 3-(β-D-Glucopyranosyl)-4-amino/4-guanidino Pyrazole Derivatives and Analysis of Their Glycogen Phosphorylase Inhibitory Potential” (Molecules, 2023).
Like-named read-outs stand apart in the source and are kept apart here. Each block holds one compound with its values, some of them ahead of it.

Columns and labels:
[1] = target: T1, rabbit muscle glycogen phosphorylase b (rmGPb) (Oryctolagus cuniculus, UniProt P00489); design: method as in PMID 26713107; details: cited from earlier work
T1 sequence (P00489 1-843): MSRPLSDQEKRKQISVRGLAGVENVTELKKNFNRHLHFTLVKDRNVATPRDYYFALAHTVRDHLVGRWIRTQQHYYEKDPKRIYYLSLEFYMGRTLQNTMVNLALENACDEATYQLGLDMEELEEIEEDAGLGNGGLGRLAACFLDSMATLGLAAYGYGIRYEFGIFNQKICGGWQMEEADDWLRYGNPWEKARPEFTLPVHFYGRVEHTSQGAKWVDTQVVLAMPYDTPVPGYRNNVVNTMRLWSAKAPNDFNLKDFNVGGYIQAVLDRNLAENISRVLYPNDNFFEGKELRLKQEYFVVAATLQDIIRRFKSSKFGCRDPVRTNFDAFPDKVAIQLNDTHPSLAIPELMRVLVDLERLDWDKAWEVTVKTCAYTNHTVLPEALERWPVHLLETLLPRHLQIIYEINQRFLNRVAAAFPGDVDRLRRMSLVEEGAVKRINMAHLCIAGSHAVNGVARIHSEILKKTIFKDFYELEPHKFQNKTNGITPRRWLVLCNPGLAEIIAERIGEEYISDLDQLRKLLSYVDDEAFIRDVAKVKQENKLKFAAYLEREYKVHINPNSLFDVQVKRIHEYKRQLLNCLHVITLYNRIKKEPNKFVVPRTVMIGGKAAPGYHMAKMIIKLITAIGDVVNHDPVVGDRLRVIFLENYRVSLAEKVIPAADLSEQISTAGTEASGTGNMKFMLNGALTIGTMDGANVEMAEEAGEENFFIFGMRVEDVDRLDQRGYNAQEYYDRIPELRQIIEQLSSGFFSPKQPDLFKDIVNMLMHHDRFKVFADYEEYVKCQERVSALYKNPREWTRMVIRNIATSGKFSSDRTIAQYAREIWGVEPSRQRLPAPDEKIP

[2] = target: T1, rabbit muscle glycogen phosphorylase b (rmGPb); test: Glycogen phosphorylase binding assay (enzyme kinetics in the direction of glycogen synthesis); type: biochemical
Experimental: The determined IC50 values are shown in Table 1, together with the previously determined Ki value for benchmark compound 1. […] Towards understanding the observed potencies, extensive computations on the bound and unbound states of the ligands were performed.
Enzyme activity was assayed into the direction of glycogen synthesis as previously presented. Kinetic data were collected using the muscle phosphorylase b (dephosphorylated, GPb) isoform. Kinetic data for the inhibition of GPb by the compounds were obtained in the presence of 10 μg/mL enzyme, varying concentrations of α-D-glucose-1-phosphate (4–40 mM), constant concentration (1%) of glycogen and AMP (1 mM). Enzymatic activities were presented in the form of a double-reciprocal plot (Lineweaver-Burk). The plots were analysed by a non-linear data analysis program. The inhibitor constants (Ki) were determined by secondary plots, replotting the slopes from the Lineweaver-Burk plot against the inhibitor concentrations. The means of standard errors for all calculated kinetic parameters averaged to less than 10% [48, 49].

SMILES: OC[C@H]1O[C@@H](c2cc(-c3ccccc3)n[nH]2)[C@H](O)[C@@H](O)[C@@H]1O [Compound 2]
- IC50 [1]: 850 µM

- IC50 ([2]; rmGPb): 565 µM
SMILES: Nc1c([C@@H]2O[C@H](CO)[C@@H](O)[C@H](O)[C@H]2O)n[nH]c1-c1ccccc1 [Compound 3, 4-Amino-3-(β-D -glucopyranosyl)-5-phenyl-1H-pyrazole]

- inhibition of rmGPb ([2]; at 625 µM concentration, 625 µM): no inhibition at 625 µM
SMILES: N=C(N)Nc1c([C@@H]2O[C@H](CO)[C@@H](O)[C@H](O)[C@H]2O)n[nH]c1-c1ccccc1 [Compound 4, 3-(β-D -Glucopyranosyl)-4-guanidino-5-phenyl-1H-pyrazole]
